Laboratory results as given in ChEMBL document CHEMBL5380794, “Discovery of a Potent and Selective STAT5 PROTAC Degrader with Strong Antitumor Activity In Vivo in Acute Myeloid Leukemia” (J Med Chem, 2023).
Active and inactive are the calls of the source. The rule behind the calls is not given here.

How the values were obtained:
[1] = system: SKNO-1; experiment: Effect on STAT3 level in human SKNO-1 cells upto 5 uM measured for 18 hrs by Western blot analysis; format: functional, cell-based
[2] = Clearance in SCID mouse at 150 mg/kg, ip; format: ADME, organism-based; conditions: in vivo
[3] = target: T1, Signal transducer and activator of transcription 5A (Homo sapiens, UniProt P42229); experiment: Induction of STAT5 degradation in human SKNO-1 cells measured for 18 hrs by Western blot analysis; format: cell-based
T1 sequence (P42229 whole entry): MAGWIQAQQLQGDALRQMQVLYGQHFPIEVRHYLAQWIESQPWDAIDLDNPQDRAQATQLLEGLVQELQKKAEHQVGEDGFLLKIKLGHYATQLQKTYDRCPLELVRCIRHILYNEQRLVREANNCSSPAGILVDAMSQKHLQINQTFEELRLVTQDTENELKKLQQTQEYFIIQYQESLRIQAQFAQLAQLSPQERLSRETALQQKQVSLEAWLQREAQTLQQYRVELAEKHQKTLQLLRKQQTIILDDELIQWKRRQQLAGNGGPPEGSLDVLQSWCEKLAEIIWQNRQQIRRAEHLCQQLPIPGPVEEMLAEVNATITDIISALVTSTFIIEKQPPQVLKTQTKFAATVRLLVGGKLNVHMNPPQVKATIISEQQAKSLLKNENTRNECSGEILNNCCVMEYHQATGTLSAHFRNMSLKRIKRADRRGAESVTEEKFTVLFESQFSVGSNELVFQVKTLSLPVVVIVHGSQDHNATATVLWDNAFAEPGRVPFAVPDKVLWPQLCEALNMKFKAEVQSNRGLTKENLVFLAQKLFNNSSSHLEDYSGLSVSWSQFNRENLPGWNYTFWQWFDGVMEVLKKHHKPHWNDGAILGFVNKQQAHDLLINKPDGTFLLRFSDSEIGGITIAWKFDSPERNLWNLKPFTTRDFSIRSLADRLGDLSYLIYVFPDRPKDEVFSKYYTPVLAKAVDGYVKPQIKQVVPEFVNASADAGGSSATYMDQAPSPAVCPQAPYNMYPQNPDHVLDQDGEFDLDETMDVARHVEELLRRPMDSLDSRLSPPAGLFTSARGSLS

[4] = system: OCI-AML2; experiment: Antiproliferative activity against human OCI-AML2 cells assessed as cell growth inhibition measured for 4 days by celltiter-glo assay; conditions: OCI-AML2, 96 h
[5] = Antiproliferative activity against human OCI-M2 cells assessed as maximal cell growth inhibition measured for 4 days by celltiter-glo assay relative to control; format: functional; conditions: time 4 day
[6] = Antiproliferative activity against human Kasumi-3 cells assessed as maximal cell growth inhibition measured for 4 days by celltiter-glo assay relative to control; format: functional; conditions: time 4 day
[7] = target: Protein cereblon (Homo sapiens, UniProt Q96SW2); experiment: Binding affinity to GST-tagged wild type human CRBN assessed as inhibition constant by TR-FRET assay
[8] = target: T2, STAT5A/STAT5B (Homo sapiens, UniProt P42229+P51692); experiment: Induction of STAT5A/5B degradation in human MV4-11 cells measured for 6 hrs by immunoblotting analysis; format: cell-based
T2 sequence (P42229 whole entry): T1 sequence (P42229 whole entry)
T2 sequence (P51692 whole entry): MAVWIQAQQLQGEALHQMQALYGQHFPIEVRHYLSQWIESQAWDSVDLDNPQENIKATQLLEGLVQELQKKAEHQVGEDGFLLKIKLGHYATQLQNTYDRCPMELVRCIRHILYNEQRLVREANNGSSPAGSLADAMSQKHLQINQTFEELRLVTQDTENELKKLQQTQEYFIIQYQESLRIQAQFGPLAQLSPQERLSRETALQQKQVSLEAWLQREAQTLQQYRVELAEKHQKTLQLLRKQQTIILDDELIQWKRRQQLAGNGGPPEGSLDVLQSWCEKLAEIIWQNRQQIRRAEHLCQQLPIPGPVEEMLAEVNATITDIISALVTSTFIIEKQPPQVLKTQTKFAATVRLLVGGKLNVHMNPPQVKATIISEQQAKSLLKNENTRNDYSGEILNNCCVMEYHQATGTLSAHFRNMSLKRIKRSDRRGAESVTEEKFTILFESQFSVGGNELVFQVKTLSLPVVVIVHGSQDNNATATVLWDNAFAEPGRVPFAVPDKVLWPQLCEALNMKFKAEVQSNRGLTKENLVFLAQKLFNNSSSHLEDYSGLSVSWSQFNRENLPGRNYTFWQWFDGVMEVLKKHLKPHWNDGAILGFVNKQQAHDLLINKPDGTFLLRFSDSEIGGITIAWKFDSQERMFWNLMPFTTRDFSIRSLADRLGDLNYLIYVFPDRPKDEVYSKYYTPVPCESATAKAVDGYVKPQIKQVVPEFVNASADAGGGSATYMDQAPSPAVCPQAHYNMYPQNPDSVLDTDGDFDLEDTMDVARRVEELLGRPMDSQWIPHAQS

[9] = system: OCI-AML2; experiment: Antiproliferative activity against human OCI-AML2 cells assessed as maximal cell growth inhibition measured for 4 days by celltiter-glo assay relative to control; format: functional; conditions: time 4 day
[10] = Antiproliferative activity against human BDCM cells assessed as cell growth inhibition measured for 4 days by celltiter-glo assay; conditions: 96 h
[11] = system: SKNO-1; experiment: Effect on STAT1 level in human SKNO-1 cells upto 5 uM measured for 18 hrs by Western blot analysis; format: functional, cell-based

Protein cereblon, sequence (Q96SW2 whole entry): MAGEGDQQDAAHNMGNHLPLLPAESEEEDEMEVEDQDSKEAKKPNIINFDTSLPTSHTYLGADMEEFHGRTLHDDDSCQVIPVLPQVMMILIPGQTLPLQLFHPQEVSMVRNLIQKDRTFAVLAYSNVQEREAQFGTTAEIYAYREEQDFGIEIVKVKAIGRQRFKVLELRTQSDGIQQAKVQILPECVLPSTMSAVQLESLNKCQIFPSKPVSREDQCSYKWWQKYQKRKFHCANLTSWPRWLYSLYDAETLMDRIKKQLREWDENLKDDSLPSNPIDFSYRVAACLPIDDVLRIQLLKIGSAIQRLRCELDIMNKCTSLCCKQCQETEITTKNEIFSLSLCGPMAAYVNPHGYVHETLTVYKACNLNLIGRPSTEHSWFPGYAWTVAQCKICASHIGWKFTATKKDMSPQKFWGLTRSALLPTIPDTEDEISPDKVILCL

CL/F [2]: 12.8 mL/min/kg
DC50 [3]: 100 nM
IC50 [4]: > 15000 nM
Ki [7]: 170 nM
DC50 [8]: 50 nM
SMILES: CN(CCCC#Cc1cccc2c1CN(C1CCC(=O)NC1=O)C2=O)C(=O)CCN(C(=O)[C@@H]1CCCN1C(=O)[C@@H](NC(=O)c1cc2cc(C(F)(F)P(=O)(O)O)ccc2s1)C(C)(C)C)c1ccc(-c2nccs2)cc1 (stereo partly specified)
Activity [1]: inactive
Imax [5]: <5%
Imax [6]: 72%
Imax [9]: <5%
IC50 [10]: > 15000 nM
Activity [11]: inactive
